Earlier results, collected in patent US6057161A (priority 1997, dated 2000).
Where two headings read alike, the source gives them in different places.

Row | Structure (SMILES) | time found in the urine after administration of heroin (in vivo) | metabolism, accumulation or excretion (in words) (body) | further results
1 | COC(=O)[C@H]1[C@@H](OC(=O)c2ccccc2)C[C@@H]2CC[C@H]1N2C [Cocaine] | – | – | metabolism, accumulation or excretion (in words) (in vivo): rapidly metabolized in the body
2 | CN1CC[C@]23c4c5ccc(O[C@@H]6O[C@H](C(=O)O)[C@@H](O)[C@H](O)[C@H]6O)c4O[C@H]2[C@@H](O)C=C[C@H]3[C@H]1C5 [Morphine-3-glucoronide, morphine-3-glucuronide] | up to 40 hours | – | –
3 | CN1[C@H]2CC[C@@H]1[C@@H](C(=O)O)[C@@H](OC(=O)c1ccccc1)C2 [Benzoylecgonine] | – | can be detected in the urine for a longer period of time than ecgonine methyl ester | –
4 | CN1CC[C@]23c4c5ccc(O)c4O[C@H]2[C@@H](O)C=C[C@H]3[C@H]1C5 [Morphine] | up to 40 hours | – | –
5 | CCCCCc1cc(O)c2c(c1)OC(C)(C)[C@@H]1CCC(C(=O)O)=C[C@@H]21 [THC-COOH] | – | excreted in the urine as a glucuronic acid conjugate at detectable levels | –
